Data as given in PubChem BioAssay (NCI).
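Five compound concentrations were applied to cells in 96-well plates for 48 hours; endpoints were derived by simple linear interpolation of the resulting dose-response curve. Here, GI50 denotes the concentration required for 50% inhibition of growth. At the TGI there is no net growth.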

What was measured:
Assay in all cases: NCI-60 cell line screen, 48 h
[1] = system: UO-31 renal
[2] = system: HOP-62 NSCLC
[3] = system: OVCAR-3 ovarian
[4] = system: RXF 393 renal
[5] = system: LOX IMVI melanoma
[6] = system: HT29 colon
[7] = system: SNB-75 CNS
[8] = system: CAKI-1 renal
[9] = system: SNB-19 CNS
[10] = system: HCT-116 colon
[11] = system: IGROV1 ovarian
[12] = system: SK-MEL-5 melanoma
[13] = system: KM12 colon
[14] = system: BT-549 breast
[15] = system: SF-295 CNS
[16] = system: TK-10 renal
[17] = system: MALME-3M melanoma
[18] = system: OVCAR-5 ovarian
[19] = system: UACC-62 melanoma
[20] = system: M14 melanoma
[21] = system: SW-620 colon
[22] = system: A498 renal
[23] = system: MDA-MB-231 breast
[24] = system: SK-OV-3 ovarian
[25] = system: ACHN renal
[26] = system: CCRF-CEM leukemia
[27] = system: SF-268 CNS
[28] = system: NCI-H23 lung
[29] = system: K-562 leukemia
[30] = system: HCT-15 colon
[31] = system: COLO 205 colon
[32] = system: HCC-2998 colon
[33] = system: UACC-257 melanoma
[34] = system: SF-539 CNS
[35] = system: HS 578T breast
[36] = system: NCI-H226 lung
[37] = system: NCI-H460 lung
[38] = system: OVCAR-8 ovarian
[39] = system: HOP-92 NSCLC
[40] = system: EKVX NSCLC
[41] = system: SK-MEL-28 melanoma
[42] = system: A549 NSCLC
[43] = system: 786-0 renal
[44] = system: MDA-MB-435
[45] = system: U251 CNS
[46] = system: T-47D breast
[47] = system: PC-3 prostate
[48] = system: OVCAR-4 ovarian
[49] = system: MDA-MB-468 breast
[50] = system: RPMI-8226 leukemia
[51] = system: HL-60(TB) leukemia
[52] = system: MCF7 breast
[53] = system: MOLT-4 leukemia
[54] = system: SN12C renal
[55] = system: NCI-H522 lung
[56] = system: DU-145 prostate

Clc1ccc(-c2ccc(OCCCN3CCN(c4ccncc4)CC3)cc2)cc1 gave a GI50 [1] of 14.7 µM, a TGI [1] of 29.6 µM and a GI50 [2] of 14.7 µM. For the same compound, the TGI [2] was 29 µM, the GI50 [3] was 13 µM and the TGI [3] was 30.2 µM. The GI50 [4] was 6.74 µM, the TGI [4] was 20.6 µM and the GI50 [5] was 1.86 µM. The TGI [5] was 3.63 µM, the GI50 [6] was 3.77 µM and the TGI [6] was 14.8 µM. It also gave a GI50 [7] of 14.9 µM, a TGI [7] of 32.5 µM and a GI50 [8] of 15.3 µM. It also gave a TGI [8] of 32.4 µM, a GI50 [9] of 15.7 µM and a TGI [9] of 30 µM. For the same compound, the GI50 [10] was 2.73 µM, the TGI [10] was 10.4 µM and the GI50 [11] was 16.8 µM. For the same compound, the TGI [11] was 32.1 µM, the GI50 [12] was 14.9 µM and the TGI [12] was 28.1 µM. It also gave a GI50 [13] of 14.5 µM, a TGI [13] of 29.7 µM and a GI50 [14] of 11.7 µM. It also gave a TGI [14] of 25.9 µM, a GI50 [15] of 13.9 µM and a TGI [15] of 28.1 µM. It also gave a GI50 [16] of 19.6 µM, a TGI [16] of 36.2 µM and a GI50 [17] of 18.1 µM. For the same compound, the TGI [17] was 32.7 µM, the GI50 [18] was 14.5 µM and the TGI [18] was 28.6 µM. The GI50 [19] was 16.7 µM, the TGI [19] was 30.5 µM and the GI50 [20] was 14.3 µM. The TGI [20] was 28.7 µM, the GI50 [21] was 9.92 µM and the TGI [21] was 23.3 µM. The GI50 [22] was 15.8 µM, the TGI [22] was 29.6 µM and the GI50 [23] was 11.8 µM. The TGI [23] was 24.7 µM, the GI50 [24] was 15.5 µM and the TGI [24] was 30.4 µM. It also gave a GI50 [25] of 16.3 µM, a TGI [25] of 30.4 µM and a GI50 [26] of 4.65 µM. It also gave a TGI [26] of 24.1 µM, a GI50 [27] of 16.9 µM and a TGI [27] of 36.5 µM. The GI50 [28] was 13.9 µM, the TGI [28] was 29.1 µM and the GI50 [29] was 2.64 µM. The TGI [29] was > 100 µM, the GI50 [30] was 1.88 µM and the TGI [30] was 3.82 µM. For the same compound, the GI50 [31] was 7.31 µM, the TGI [31] was 20.6 µM and the GI50 [32] was 13.3 µM. The TGI [32] was 26.6 µM, the GI50 [33] was 17.3 µM and the TGI [33] was 32.6 µM. The GI50 [34] was 12.5 µM, the TGI [34] was 25.4 µM and the GI50 [35] was 17.9 µM. The TGI [35] was 45.3 µM, the GI50 [36] was 20.8 µM and the TGI [36] was 55.8 µM. The GI50 [37] was 7.47 µM, the TGI [37] was 21.4 µM and the GI50 [38] was 22 µM. The TGI [38] was 68.1 µM, the GI50 [39] was 3.46 µM and the TGI [39] was 20.3 µM. For the same compound, the GI50 [40] was 12 µM, the TGI [40] was 27.9 µM and the GI50 [41] was 15.3 µM. It also gave a TGI [41] of 29.2 µM, a GI50 [42] of 15.1 µM and a TGI [42] of 29.9 µM. It also gave a GI50 [43] of 14 µM, a TGI [43] of 27.1 µM and a GI50 [44] of 11.1 µM. The TGI [44] was 23.5 µM, the GI50 [45] was 11.8 µM and the TGI [45] was 25.4 µM. It also gave a GI50 [46] of 16.2 µM, a TGI [46] of 40.2 µM and a GI50 [47] of 8.43 µM. For the same compound, the TGI [47] was 51.3 µM, the GI50 [48] was 15.6 µM and the TGI [48] was 41.7 µM. The GI50 [49] was 6.28 µM, the TGI [49] was 19.5 µM and the GI50 [50] was 6.95 µM. The TGI [50] was > 100 µM, the GI50 [51] was 4.46 µM and the TGI [51] was 19.7 µM. The GI50 [52] was 6.19 µM, the TGI [52] was 21.2 µM and the GI50 [53] was 6.71 µM. For the same compound, the TGI [53] was > 100 µM, the GI50 [54] was 13 µM and the TGI [54] was 26.3 µM. For the same compound, the GI50 [55] was 16.6 µM, the TGI [55] was 31.9 µM and the GI50 [56] was 17.9 µM. It also gave a TGI [56] of 55.4 µM.
